Laboratory results as given in patent publication US20180256668A1, “PHARMACEUTICAL COMPOSITION FOR TREATMENT OF OR REMISSION IN ELDERLY OR TERMINAL CANCER PATIENT” (DELTA-FLY PHARMA, INC., priority 2014, published 2018).

Columns and labels:
[1] = tested on: post-surgery liver metastasis of colorectal cancer; experiment: Case of a terminal colorectal cancer patient with post-surgery liver metastasis (Example 1); type: in vivo, human
Protocol: Post-surgery liver metastasis was confirmed in the terminal colorectal cancer patient.
Starting in March 2014 (Mar-14), Bestatin […]) was administered alone every day.

[2] = tested on: post-surgery multiple lung metastases of thyroid gland cancer; experiment: Case of a patient with post-surgery multiple lung metastases of thyroid gland cancer (Example 2); type: in vivo, human
Protocol: Multiple lung metastases were confirmed in a thyroid gland cancer patient and the platelet count and the neutrophil count in peripheral blood both increased. In December 2013 (Dec-13), the […] to neutrophil count ratio (NLR) in peripheral blood was more than 5, indicating poor prognosis.
Starting in March 2014 (Mar-14), Bestatin (10 mg/day) was administered alone every day.

[3] = tested on: post-surgery recurrence of non-small cell lung cancer; experiment: Case of a patient with post-surgery recurrence of non-small cell lung cancer (Example 3); type: in vivo, human; conditions: Bestatin 10 mg/day alone every day from Jan-14
Protocol: The non-small cell lung cancer patient received lung right upper lobectomy, then immunotherapy, but enlargement of the right cervical lymph node was confirmed (September 2012 (Sep-12)). Subsequently, the elevation of CEA levels in peripheral blood was confirmed.
Starting in January 2014 (Jan-14), Bestatin (10 mg/day) was administered alone every day.

[4] = tested on: A549 human lung carcinoma; experiment: Antitumor effect of Bestatin and gefitinib in A549 cancer-bearing mice (Example 15); type: in vivo, BALB/c nu/nu mice; conditions: po, qd, 6 days/week x 3 weeks
Protocol: • [1] Production of Cancer-Bearing Mouse
A549 human lung carcinoma suspension (5×10^6 cells/100 μL PBS) was subcutaneously inoculated to BALB/c nu/nu mice (female). After cells were transplanted, mice with a tumor volume reaching about 117 mm^3 (on day 15 after the cell transplantation) were used for the following in vivo experiments, • [2] Evaluation of Antitumor Effects Attained by Combination of Bestatin and Gefitinib
Bestatin and gefitinib were respectively administered by the following doses, administration route and schedule to the above A549 cancer-bearing mice.
The antitumor effect was examined based on changes in tumor volume and changes in body weight.
The tumor volume was calculated by the following formula.
Tumor volume (mm^3)=(long side of tumor)×(short side of tumor)^2×0.5
Tumor growth inhibition (TGI) was also calculated from the tumor volume by the following formula.

[5] = Bestatin 10 mg/day alone every day from Mar-14
[6] = Bestatin 10 mg/day alone every day, May-14, two months after start

Q: Which results are given for `CC(C)C[C@H](NC(=O)[C@@H](O)[C@H](N)Cc1ccccc1)C(=O)O` [Bestatin, (2S)-2-[(2S,3R)-3-amino-2-hydroxy-4-phenylbutanoylamino]-4-methylpentanoic acid]?
A: platelet count in peripheral blood [1, 5]: started decreasing; tumor marker CA19-9 level in peripheral blood [1, 6]: started decreasing; tumor marker CEA level in peripheral blood [1, 6]: started decreasing; CEA level after Bestatin administration was stopped ([1]; administration stopped Jul-14): quickly elevated again; platelet count in peripheral blood after Bestatin administration was stopped ([1]; administration stopped Jul-14): quickly elevated again; Lymphocyte in peripheral blood ([2]; 2014 Jul. 15 (After administration), Bestatin 10 mg/day alone, before administration 8%): 22%; Neutrophil in peripheral blood ([2]; 2014 Jul. 15 (After administration), Bestatin 10 mg/day alone, before administration 83%): 55%; Leukocyte in peripheral blood ([2]; 2014 Jul. 15 (After administration), Bestatin 10 mg/day alone, before administration (2014 Jan. 10) 9500): 4900; neutrophil count in peripheral blood [2, 5]: drops; platelet count in peripheral blood [2, 5]: drops; CEA level in peripheral blood [3]: drop; TGI (%) On day 40 ([4]; G3: Bestatin 30 mg/kg alone): 39%

Q: `COc1cc2ncnc(Nc3ccc(F)c(Cl)c3)c2cc1OCCCN1CCOCC1` [gefitinib] was tested. Which “TGI (%) On day 40” value ([4]; G2: gefitinib 10 mg/kg alone) did it give?
A: 31%
